# Results taken from patent US20040019024A1, “Use of vitamin d derivatives as bone resorption inhibitors” (priority 2000, published 2004).
# Marks after values point to notes of the source that are not given here.
# Assays:
# [1] = test system: bone marrow cells of normal persons; experiment: Osteoclast formation induced by 1α,25-dihydroxyvitamin D3 in normal human bone marrow cultures; format: cell-based; conditions: for osteoclast formation (average number of cells ± S.D.): normal marrow
# Excerpt: Mononuclear cells were fractionated from bone marrow cells of healthy normal persons according to a method of Kurihara et al. (Endocrinology, vol. 126, 2733-2741 (1990)). Briefly, bone marrow cells were obtained from normal persons, a mononuclear cell fraction was collected by Hypaque-Ficoll density gradient centrifugation, the cell fraction was washed with α-Minimal Essential Media (α-MEM) 3 times, and the cells dispersed in α-MEM containing 10% fetal bovine serum. This mononuclear cell suspension was seeded in 100-mm tissue culture plates, the culture plate was kept for 90 minutes at 37° C. in a 4% CO2-air atmosphere, and the non-adherent cells were collected. The non-adherent mononuclear cells were dispersed into α-MEM culture medium containing 20% horse serum at 10^6 cells/ml, the cell suspension was seeded into 96-well multi plates at 100 μl/well. The capacity of the compound 11 (23S isomer) to inhibit osteoclast formation induced by 1α,25-dihydroxyvitamin D3 was evaluated as follows: Various concentrations of 1α,25-dihydroxyvitamin D3, various concentrations of compound 11 (23S isomer) or a combination of 10^−8 M 1α,25-dihydroxyvitamin D3 solution and various concentrations of compound 11 (23S isomer) solution were added to each well. The culture medium was replaced twice weekly and the cultures continued for 3 weeks at 37° C. in an atmosphere of 4% CO2-air. Osteoclasts that formed were identified by their capacity to bind the 23C6 antibody. The nuclei were counter stained with methyl green. Cells that reacted with the 23C6 antibody and had 3 or more nuclei were scored as osteoclasts.
# [2] = test system: bone marrow cells of Paget's disease of bone patients; experiment: Osteoclast formation induced by 1α,25-dihydroxyvitamin D3 in bone marrow cultures from Paget's disease of bone patients; format: cell-based, human; conditions: for osteoclast formation (average number of cells ± S.D.): Paget's marrow
# Excerpt: Mononuclear cells were fractionated from bone marrow cells of healthy normal persons according to a method of Kurihara et al. (Endocrinology, vol. 126, 2733-2741 (1990)). Briefly, bone marrow cells were obtained from normal persons, a mononuclear cell fraction was collected by Hypaque-Ficoll density gradient centrifugation, the cell fraction was washed with α-Minimal Essential Media (α-MEM) 3 times, and the cells dispersed in α-MEM containing 10% fetal bovine serum. This mononuclear cell suspension was seeded in 100-mm tissue culture plates, the culture plate was kept for 90 minutes at 37° C. in a 4% CO2-air atmosphere, and the non-adherent cells were collected. The non-adherent mononuclear cells were dispersed into α-MEM culture medium containing 20% horse serum at 10^6 cells/ml, the cell suspension was seeded into 96-well multi plates at 100 μl/well.
# The capacity of the compound 11 (23S isomer) to inhibit osteoclast formation induced by 1α,25-dihydroxyvitamin D3 was evaluated as follows: Various concentrations of 1α,25-dihydroxyvitamin D3, various concentrations of compound 11 ([…]) solution were added to each well. The culture medium was replaced twice weekly and the cultures continued for 3 weeks at 37° C. in an atmosphere of 4% CO2-air. Osteoclasts that formed were identified by their capacity to bind the 23C6 antibody. The nuclei were counter stained with methyl green. Cells that reacted with the 23C6 antibody and had 3 or more nuclei were scored as osteoclasts.
# Bone marrow cells were obtained from involved bones of patients with Paget's disease of bone and processed and cultured as described above for normal bone cells. The cultures were treated in an identical manner with 1α,25-dihydroxyvitamin D3 and/or compound 11 (23S isomer) as described in Example 1.
# Bone marrow cultures were performed as described in Example 1, with the exception that different types of vitamin D antagonists were added to at varying concentrations to bone marrow cultures stimulated with 1α,25-dihydroxyvitamin D3. The bone marrow cells were taken from involved bones of patients with Paget's disease of bone and the cultures were performed as described in Example 2. There are two diastereoisomers, based on the asymmetric carbon at the 23 position, in compounds 13 and 16. The isomer having the shorter retention time on reverse phase HPLC analysis was the more polar isomer and the isomer having the longer retention time was the less polar isomer.
# vitamin D deficient rats = experiment: Bone resorption (serum calcium) induced by 1α,25-dihydroxyvitamin D3 in vitamin D deficient rats; format: in vivo, Wistar rats
# Method: Four-week-old male Wistar rats purchased from Japan SLC (Shizuoka, in Japan) were used. The animals were kept in wire-net cages (three animals in a cage) and raised for 7 weeks with free access to a vitamin D-deficient diet (Ca, 0.0036%; P, 0.3%; Harlan Taklad Research Diet, Madison, Wis., U.S.A.) and drinking water (well water treated with hypochlorite of […]±0.2 ppm). Temperature was kept at 23±1° C. and the humidity at 55±10%. Five animals were used for each experimental group. The control animals received intravenously administered solvent (5% ethanol-0.1% Triton X-100-physiological saline solution), and the experimental animals were intravenously administered 1α,25-dihydroxyvitamin D3 at a dose of 0.25 μg/kg. For animals receiving vitamin D derivatives, compound 11 (23S isomer) was administered intravenously at a dose of 2 μg/kg, 10 μg/kg or 50 μg/kg, or the compound 11 (23S isomer) with or without 1α,25-dihydroxyvitamin D3 at a dose of 0.25 μg/kg. The volume was 2 ml/kg for each animal. 24 hours after administration, a blood sample was taken out from abdominal descending aorta under ether anesthesia, the serum was collected according to conventional methods, and the calcium concentration in the serum was measured. The calcium concentrations were measured according to OCPC-method (Am. J. Clin. Pathol., vol. 45, 290-296 (1966)) with an autoanalyzer (type 7070, manufactured by Hitachi Seisakusho).
smiles,measurement,setting,value
"C=C1CC(CC(C)C2CCC3C(=CC=C4CC(O)CC(O)C4=C)CCCC32C)OC1=O [compound 11 (23S isomer), (23S)-25-Dehydro-1α,25-Dihydroxyvitamin D3-26, 23-Lactone]",osteoclast formation (average number of cells ± S.D.),"[1]; 10^−8 M 1α,25-dihydroxyvitamin D3 + compound 10^−6 M",20 ± 7 cells
same,osteoclast formation (average number of cells ± S.D.),"[1]; 10^−8 M 1α,25-dihydroxyvitamin D3 + compound 10^−7 M",33 ± 16 cells
same,osteoclast formation (average number of cells ± S.D.),"[1]; 10^−8 M 1α,25-dihydroxyvitamin D3 + compound 10^−8 M",44 ± 8 cells
same,osteoclast formation (average number of cells ± S.D.),"[1]; 10^−8 M 1α,25-dihydroxyvitamin D3 + compound 10^−9 M",55 ± 12 cells
same,osteoclast formation (average number of cells ± S.D.),"[1]; 10^−8 M 1α,25-dihydroxyvitamin D3 + compound 10^−10 M",80 ± 5 cells
same,osteoclast formation (average number of cells ± S.D.),"[1]; 10^−8 M 1α,25-dihydroxyvitamin D3 + compound 10^−11 M",85 ± 8 cells
same,osteoclast formation (average number of cells ± S.D.),"[1]; compound alone, 10^−6 M, 3 weeks",0 ± 0 cells
same,osteoclast formation (average number of cells ± S.D.),"[1]; compound alone, 10^−7 M, 3 weeks",0 ± 1 cells
same,osteoclast formation (average number of cells ± S.D.),"[1]; compound alone, 10^−8 M, 3 weeks",3 ± 2 cells
same,osteoclast formation (average number of cells ± S.D.),"[1]; compound alone, 10^−9 M, 3 weeks",5 ± 1 cells
same,osteoclast formation (average number of cells ± S.D.),"[1]; compound alone, 10^−10 M, 3 weeks",9 ± 5 cells
same,osteoclast formation (average number of cells ± S.D.),"[1]; compound alone, 10^−11 M, 3 weeks",17 ± 4 cells
same,induction of osteoclast formation by the compound alone (in words),[1]; normal marrow cultures,did not induce osteoclast formation
same,osteoclast formation (average number of cells ± S.D.),"[2]; 10^−10 M 1α,25-dihydroxyvitamin D3 + compound 10^−6 M",1 ± 1 cells
same,osteoclast formation (average number of cells ± S.D.),"[2]; 10^−10 M 1α,25-dihydroxyvitamin D3 + compound 10^−7 M, listed as compound 11 (235 isomer)",14 ± 1 cells
same,osteoclast formation (average number of cells ± S.D.),"[2]; 10^−10 M 1α,25-dihydroxyvitamin D3 + compound 10^−8 M, listed as compound 11 (235 isomer)",63 ± 5 cells
same,osteoclast formation (average number of cells ± S.D.),"[2]; 10^−10 M 1α,25-dihydroxyvitamin D3 + compound 10^−9 M",125 ± 5 cells
same,osteoclast formation (average number of cells ± S.D.),"[2]; 10^−10 M 1α,25-dihydroxyvitamin D3 + compound 10^−10 M",155 ± 6 cells
same,osteoclast formation (average number of cells ± S.D.),"[2]; 10^−10 M 1α,25-dihydroxyvitamin D3 + compound 10^−11 M",170 ± 13 cells
same,induction of osteoclast formation by the compound alone (in words),[2]; Paget's marrow cultures,did not induce osteoclast formation
same,osteoclast formation (average number of cells ± S.D.),"[2]; compound alone, 10^−6 M",1 ± 1 cells
same,osteoclast formation (average number of cells ± S.D.),"[2]; compound alone, 10^−7 M",8 ± 2 cells
same,osteoclast formation (average number of cells ± S.D.),"[2]; compound alone, 10^−8 M",9 ± 3 cells
same,osteoclast formation (average number of cells ± S.D.),"[2]; compound alone, 10^−9 M",16 ± 2 cells
same,osteoclast formation (average number of cells ± S.D.),"[2]; compound alone, 10^−10 M",20 ± 4 cells
same,osteoclast formation (average number of cells ± S.D.),"[2]; compound alone, 10^−11 M",29 ± 5 cells
same,effect on basal osteoclast formation (in words),"[2]; compound alone, Paget's marrow cultures",inhibited basal osteoclast formation
same,serum Ca concentration,"vitamin D deficient rats; 0.25 μg/kg 1α,25-dihydroxyvitamin D3 + compound 2 μg/kg intravenously, 24 hours",5.31 ± 0.22 mg/100 ml serum
same,serum Ca concentration,"vitamin D deficient rats; 0.25 μg/kg 1α,25-dihydroxyvitamin D3 + compound 10 μg/kg intravenously, 24 hours",4.97 ± 0.18^a mg/100 ml serum
same,serum Ca concentration,"vitamin D deficient rats; 0.25 μg/kg 1α,25-dihydroxyvitamin D3 + compound 50 μg/kg intravenously, 24 hours",4.72 ± 0.21^b mg/100 ml serum
same,"bone resorption induced by 1α,25-dihydroxyvitamin D3 (in words)","vitamin D deficient rats; 0.25 μg/kg 1α,25-dihydroxyvitamin D3 simultaneously with 2, 10 or 50 μg/kg compound",suppressed
same,serum Ca concentration,"vitamin D deficient rats; compound alone, 2 μg/kg intravenously, 24 hours after administration",4.61 ± 0.12 mg/100 ml serum
same,serum Ca concentration,"vitamin D deficient rats; compound alone, 10 μg/kg intravenously, 24 hours after administration",4.67 ± 0.11 mg/100 ml serum
same,serum Ca concentration,"vitamin D deficient rats; compound alone, 50 μg/kg intravenously, 24 hours after administration",4.65 ± 0.18 mg/100 ml serum
same,serum calcium concentration after compound alone (in words),"vitamin D deficient rats; even at a dose of 50 μg/kg, 24 hours after administration",increased serum calcium concentrations were not observed
